# Reference: ChEMBL document CHEMBL5212743, “Selectivity Literature for EUbOPEN Chemogenomics Library wave 3” (2023)
# Legend:
# [1] = target: T1, Serine/threonine-protein kinase ULK2 (Homo sapiens) (UniProt Q8IYT8); assay: Selectivity interaction (KinomeScan (DiscoverX)) EUB0000702a ULK2; details: at 1 µM
# T1 sequence (whole entry): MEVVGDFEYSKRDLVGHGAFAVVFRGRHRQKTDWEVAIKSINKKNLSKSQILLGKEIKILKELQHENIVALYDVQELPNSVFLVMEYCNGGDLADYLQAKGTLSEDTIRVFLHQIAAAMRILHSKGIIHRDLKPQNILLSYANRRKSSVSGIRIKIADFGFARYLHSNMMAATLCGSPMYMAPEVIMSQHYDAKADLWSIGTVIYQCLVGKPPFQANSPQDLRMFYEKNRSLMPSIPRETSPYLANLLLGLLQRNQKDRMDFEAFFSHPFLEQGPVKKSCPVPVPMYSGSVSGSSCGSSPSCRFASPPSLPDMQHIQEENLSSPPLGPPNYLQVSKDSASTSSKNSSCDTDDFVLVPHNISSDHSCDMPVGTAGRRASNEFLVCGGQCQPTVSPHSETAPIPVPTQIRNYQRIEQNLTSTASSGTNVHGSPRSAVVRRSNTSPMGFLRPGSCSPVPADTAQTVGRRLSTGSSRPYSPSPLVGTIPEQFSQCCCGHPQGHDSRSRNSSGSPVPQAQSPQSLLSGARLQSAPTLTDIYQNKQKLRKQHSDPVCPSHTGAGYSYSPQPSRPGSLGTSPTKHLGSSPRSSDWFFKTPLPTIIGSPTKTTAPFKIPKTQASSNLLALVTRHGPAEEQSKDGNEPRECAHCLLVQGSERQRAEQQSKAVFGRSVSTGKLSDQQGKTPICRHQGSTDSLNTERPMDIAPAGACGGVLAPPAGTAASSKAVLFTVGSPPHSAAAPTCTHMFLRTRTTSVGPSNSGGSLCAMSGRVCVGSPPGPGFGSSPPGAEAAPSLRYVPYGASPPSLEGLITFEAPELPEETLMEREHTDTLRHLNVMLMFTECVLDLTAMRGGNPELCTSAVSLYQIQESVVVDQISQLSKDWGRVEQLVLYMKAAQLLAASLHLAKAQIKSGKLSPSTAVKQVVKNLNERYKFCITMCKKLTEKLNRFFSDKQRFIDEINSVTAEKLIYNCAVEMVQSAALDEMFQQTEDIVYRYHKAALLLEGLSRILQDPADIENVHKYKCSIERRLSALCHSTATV
# [2] = target: T2, Mitogen-activated protein kinase kinase kinase 19 (Homo sapiens) (UniProt Q56UN5); assay: Selectivity interaction (KinomeScan (DiscoverX)) EUB0000305b MAP3K19; details: CellTiter-Glo assay (Promega, proliferation in ACHN cells): IC50 = […] nM, https://www.sgc-ffm.uni-frankfurt.de/#!specificprobeove, at 100 nM
# T2 sequence (whole entry): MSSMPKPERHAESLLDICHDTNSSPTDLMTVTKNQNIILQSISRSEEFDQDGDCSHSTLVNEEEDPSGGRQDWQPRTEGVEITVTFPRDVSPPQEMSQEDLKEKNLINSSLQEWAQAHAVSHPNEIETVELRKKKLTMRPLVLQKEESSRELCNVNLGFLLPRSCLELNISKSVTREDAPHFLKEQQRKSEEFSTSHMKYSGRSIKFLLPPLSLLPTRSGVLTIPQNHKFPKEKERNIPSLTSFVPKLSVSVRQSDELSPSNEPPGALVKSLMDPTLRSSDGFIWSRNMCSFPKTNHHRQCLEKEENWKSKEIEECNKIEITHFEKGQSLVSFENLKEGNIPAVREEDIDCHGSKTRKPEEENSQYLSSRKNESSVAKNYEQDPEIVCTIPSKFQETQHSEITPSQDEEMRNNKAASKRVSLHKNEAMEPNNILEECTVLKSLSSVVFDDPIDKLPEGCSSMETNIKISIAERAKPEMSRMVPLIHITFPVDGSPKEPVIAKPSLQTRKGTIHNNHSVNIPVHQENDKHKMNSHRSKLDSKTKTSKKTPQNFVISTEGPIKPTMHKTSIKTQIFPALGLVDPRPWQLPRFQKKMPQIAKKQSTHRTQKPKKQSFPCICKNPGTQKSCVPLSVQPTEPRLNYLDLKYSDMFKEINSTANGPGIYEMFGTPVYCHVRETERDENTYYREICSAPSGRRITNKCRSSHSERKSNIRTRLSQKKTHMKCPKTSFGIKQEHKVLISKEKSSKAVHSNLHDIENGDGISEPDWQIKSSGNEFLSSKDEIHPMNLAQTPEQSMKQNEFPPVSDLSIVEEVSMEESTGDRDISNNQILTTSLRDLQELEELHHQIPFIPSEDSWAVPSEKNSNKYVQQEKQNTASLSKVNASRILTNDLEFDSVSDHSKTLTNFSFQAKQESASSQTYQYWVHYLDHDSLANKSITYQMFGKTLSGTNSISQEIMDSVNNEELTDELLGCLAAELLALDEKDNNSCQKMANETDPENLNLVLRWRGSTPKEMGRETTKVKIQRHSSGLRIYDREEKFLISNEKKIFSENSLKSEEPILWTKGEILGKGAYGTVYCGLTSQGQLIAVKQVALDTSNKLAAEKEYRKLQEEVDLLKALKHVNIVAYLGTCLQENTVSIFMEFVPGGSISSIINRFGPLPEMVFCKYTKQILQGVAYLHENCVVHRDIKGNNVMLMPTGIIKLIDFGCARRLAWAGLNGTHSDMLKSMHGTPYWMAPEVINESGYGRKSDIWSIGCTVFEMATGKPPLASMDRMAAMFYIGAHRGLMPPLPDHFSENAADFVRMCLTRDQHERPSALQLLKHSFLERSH
# [3] = system: Phosphatidylinositol 4,5-bisphosphate 3-kinase catalytic subunit alpha isoform (Homo sapiens), P42336 [Q546K]; assay: Selectivity interaction (KinomeScan (DiscoverX)) EUB0000305b PIK3CA; details: CellTiter-Glo assay (Promega, proliferation in ACHN cells): IC50 = […] nM, https://www.sgc-ffm.uni-frankfurt.de/#!specificprobeove, at 100 nM
# [4] = target: Calcium/calmodulin-dependent protein kinase kinase 1 (Homo sapiens) (UniProt Q8N5S9); assay: Selectivity interaction (KinomeScan (DiscoverX)) EUB0000169b CAMKK1; details: at 1 µM
# [5] = target: Rho-associated protein kinase 2 (Homo sapiens) (UniProt O75116); assay: Selectivity interaction (Kinase panel (University of Dundee)) EUB0000169b ROCK2; details: at 10 µM
# [6] = target: Protein kinase C alpha type (Homo sapiens) (UniProt P17252); assay: Selectivity interaction (Kinase panel (University of Dundee)) EUB0000169b PRKCA; details: at 10 µM
# [7] = target: Mitogen-activated protein kinase 8 (Homo sapiens, UniProt P45983); details: at 10 µM
# [8] = target: Serine/threonine-protein kinase RIO1 (Homo sapiens) (UniProt Q9BRS2); assay: Selectivity interaction (KinomeScan (DiscoverX)) EUB0000698a RIOK1; details: at 10 µM
# [9] = target: STE20-like serine/threonine-protein kinase (Homo sapiens, UniProt Q9H2G2); assay: Selectivity interaction (KinomeScan (DiscoverX)) EUB0000698a SLK; details: at 10 µM
# [10] = target: Dual specificity protein kinase CLK2 (Homo sapiens, UniProt P49760); assay: Selectivity interaction (KinomeScan (DiscoverX)) EUB0000138c CLK2; details: at 100 nM
# Chain of Dual specificity protein kinase CLK2 (P49760 whole entry, looked up): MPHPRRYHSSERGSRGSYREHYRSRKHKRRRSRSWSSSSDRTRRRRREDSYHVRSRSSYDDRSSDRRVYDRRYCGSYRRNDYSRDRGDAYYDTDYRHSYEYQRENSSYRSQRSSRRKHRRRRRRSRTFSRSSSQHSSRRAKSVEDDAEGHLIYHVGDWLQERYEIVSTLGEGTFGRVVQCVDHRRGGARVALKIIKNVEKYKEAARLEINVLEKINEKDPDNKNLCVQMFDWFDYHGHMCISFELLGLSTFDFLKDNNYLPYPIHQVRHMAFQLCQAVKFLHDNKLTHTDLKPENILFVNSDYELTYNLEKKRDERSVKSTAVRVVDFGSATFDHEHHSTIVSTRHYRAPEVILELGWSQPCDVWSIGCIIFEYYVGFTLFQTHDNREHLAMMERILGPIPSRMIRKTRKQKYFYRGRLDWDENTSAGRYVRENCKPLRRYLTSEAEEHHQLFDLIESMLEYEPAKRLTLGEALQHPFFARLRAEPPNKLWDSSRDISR
# Chain of Rho-associated protein kinase 2 (Homo sapiens) (O75116 whole entry, looked up): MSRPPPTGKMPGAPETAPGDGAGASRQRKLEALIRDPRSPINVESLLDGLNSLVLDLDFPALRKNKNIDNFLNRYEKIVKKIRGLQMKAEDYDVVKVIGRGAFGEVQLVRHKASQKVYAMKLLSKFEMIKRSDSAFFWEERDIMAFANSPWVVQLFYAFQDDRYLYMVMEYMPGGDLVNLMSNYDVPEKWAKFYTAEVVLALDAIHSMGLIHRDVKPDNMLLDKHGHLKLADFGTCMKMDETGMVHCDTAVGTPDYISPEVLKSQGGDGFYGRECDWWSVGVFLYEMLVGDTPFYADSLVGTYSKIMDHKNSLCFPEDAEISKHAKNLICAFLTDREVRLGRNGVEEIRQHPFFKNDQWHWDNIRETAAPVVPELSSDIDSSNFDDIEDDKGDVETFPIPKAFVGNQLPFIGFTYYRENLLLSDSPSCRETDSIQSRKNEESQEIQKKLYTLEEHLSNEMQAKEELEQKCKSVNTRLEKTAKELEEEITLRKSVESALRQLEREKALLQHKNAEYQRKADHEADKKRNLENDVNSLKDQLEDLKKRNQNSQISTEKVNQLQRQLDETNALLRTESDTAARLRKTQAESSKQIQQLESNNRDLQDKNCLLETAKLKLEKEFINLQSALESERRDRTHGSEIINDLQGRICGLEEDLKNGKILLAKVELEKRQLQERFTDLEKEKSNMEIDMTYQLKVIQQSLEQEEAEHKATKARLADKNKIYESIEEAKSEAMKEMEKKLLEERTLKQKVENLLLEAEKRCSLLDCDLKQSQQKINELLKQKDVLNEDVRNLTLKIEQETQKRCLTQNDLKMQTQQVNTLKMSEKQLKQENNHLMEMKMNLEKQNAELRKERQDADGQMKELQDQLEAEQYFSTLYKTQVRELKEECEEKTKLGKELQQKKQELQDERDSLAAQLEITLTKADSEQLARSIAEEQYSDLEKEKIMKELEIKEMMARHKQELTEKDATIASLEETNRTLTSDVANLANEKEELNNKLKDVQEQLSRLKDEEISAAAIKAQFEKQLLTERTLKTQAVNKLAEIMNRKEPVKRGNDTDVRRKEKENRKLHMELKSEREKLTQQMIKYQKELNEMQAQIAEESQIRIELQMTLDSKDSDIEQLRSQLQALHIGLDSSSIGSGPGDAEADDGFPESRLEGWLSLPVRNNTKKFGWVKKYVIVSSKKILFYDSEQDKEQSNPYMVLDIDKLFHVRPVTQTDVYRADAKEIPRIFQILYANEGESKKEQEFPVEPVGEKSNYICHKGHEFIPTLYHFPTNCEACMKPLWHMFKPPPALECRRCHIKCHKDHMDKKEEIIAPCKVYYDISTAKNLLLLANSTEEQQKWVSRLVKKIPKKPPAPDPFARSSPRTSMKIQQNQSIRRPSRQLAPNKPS
# Chain of Calcium/calmodulin-dependent protein kinase kinase 1 (Homo sapiens) (Q8N5S9 whole entry, looked up): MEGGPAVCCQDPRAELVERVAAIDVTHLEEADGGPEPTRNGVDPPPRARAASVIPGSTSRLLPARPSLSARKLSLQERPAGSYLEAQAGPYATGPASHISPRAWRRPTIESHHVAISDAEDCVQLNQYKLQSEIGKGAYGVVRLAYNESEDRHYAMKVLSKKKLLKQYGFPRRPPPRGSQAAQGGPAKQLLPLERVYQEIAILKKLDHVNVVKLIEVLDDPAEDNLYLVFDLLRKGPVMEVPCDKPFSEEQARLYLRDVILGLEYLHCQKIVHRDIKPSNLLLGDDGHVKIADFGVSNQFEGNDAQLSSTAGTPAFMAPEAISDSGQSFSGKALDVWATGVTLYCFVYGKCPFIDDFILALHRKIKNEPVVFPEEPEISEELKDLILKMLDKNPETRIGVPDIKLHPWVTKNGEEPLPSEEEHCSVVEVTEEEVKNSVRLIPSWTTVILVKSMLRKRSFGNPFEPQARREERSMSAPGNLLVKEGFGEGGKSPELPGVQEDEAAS
# Chain of Mitogen-activated protein kinase 8 (P45983 whole entry): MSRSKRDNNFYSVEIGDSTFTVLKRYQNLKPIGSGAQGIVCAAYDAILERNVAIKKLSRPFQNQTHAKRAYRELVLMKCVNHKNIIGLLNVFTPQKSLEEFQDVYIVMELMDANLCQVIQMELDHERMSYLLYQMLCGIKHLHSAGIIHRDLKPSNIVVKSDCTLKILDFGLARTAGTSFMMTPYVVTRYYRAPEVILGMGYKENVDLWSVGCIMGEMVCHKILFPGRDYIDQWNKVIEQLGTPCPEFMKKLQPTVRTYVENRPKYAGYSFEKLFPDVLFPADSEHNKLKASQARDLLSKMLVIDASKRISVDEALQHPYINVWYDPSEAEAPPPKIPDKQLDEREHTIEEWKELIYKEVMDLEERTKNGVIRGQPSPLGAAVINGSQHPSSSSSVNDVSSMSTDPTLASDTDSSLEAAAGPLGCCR
# Chain of STE20-like serine/threonine-protein kinase (Q9H2G2 whole entry, looked up): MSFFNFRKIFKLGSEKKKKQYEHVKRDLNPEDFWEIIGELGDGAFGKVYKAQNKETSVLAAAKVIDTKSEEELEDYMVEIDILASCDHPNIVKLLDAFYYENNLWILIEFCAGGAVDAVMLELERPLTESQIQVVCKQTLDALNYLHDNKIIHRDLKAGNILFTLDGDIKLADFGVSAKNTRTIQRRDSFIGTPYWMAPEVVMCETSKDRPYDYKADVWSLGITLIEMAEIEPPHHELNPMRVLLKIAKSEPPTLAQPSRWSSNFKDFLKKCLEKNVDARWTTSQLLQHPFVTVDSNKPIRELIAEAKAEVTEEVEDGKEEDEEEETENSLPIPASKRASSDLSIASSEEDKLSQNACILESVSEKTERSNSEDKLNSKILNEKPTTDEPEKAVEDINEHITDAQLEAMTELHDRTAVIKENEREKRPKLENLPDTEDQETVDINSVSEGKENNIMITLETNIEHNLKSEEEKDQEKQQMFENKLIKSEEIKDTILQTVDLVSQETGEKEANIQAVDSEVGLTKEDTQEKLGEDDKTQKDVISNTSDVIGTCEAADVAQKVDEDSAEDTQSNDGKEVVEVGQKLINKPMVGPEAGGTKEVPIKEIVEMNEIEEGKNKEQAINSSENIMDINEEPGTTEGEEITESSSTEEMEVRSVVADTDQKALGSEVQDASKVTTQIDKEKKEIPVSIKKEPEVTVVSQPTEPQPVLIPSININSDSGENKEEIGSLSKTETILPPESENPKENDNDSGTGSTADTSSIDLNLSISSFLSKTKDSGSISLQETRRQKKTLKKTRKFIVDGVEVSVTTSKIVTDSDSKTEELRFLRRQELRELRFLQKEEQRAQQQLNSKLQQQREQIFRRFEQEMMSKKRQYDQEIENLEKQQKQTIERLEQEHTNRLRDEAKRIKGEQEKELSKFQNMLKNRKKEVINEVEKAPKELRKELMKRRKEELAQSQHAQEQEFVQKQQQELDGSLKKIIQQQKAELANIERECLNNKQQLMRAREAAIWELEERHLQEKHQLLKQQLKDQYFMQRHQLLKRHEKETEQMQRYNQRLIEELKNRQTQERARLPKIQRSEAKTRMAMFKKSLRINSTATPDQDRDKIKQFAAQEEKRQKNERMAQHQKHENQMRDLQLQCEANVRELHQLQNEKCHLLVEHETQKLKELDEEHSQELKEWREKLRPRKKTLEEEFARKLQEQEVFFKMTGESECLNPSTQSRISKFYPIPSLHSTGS
smiles,measurement,setting,value
CN(c1ccnc(CNc2nc(Nc3ccc4c(c3)CC(=O)N4)ncc2C(F)(F)F)n1)S(C)(=O)=O [PF-00911705],% of control,[1],5.4%
C[C@H](c1ccnc(Nc2nc3ccc(-c4cc(N(C)C)ncn4)cc3[nH]2)c1)N1CCN(C(=O)CC(F)(F)F)CC1 [BAY-985],% of control,[2],10%
same,% of control,[3],45%
CC[C@@H]1C(=O)N(C)c2cnc(Nc3ccc(C(=O)NC4CCN(C)CC4)cc3OC)nc2N1C1CCCC1,% of control,[4],3.7%
same,% of control,[5],98%
same,% of control,[6],103%
same,% of control,[7],92%
COc1cc2ncn(-c3cc(OCc4ccccc4C(F)(F)F)c(C(N)=O)s3)c2cc1OC [GW843682X],% of control,[8],4.1%
same,% of control,[9],0.3%
CNC(=O)c1ccc(Nc2ncc(C(F)(F)F)c(NCc3nccnc3N(C)S(C)(=O)=O)n2)cc1 [DEFACTINIB],% of control,[10],0%
